Source: the supplement of paper PMC10307832

How the values were obtained:
Assay in all cases: relative viability (nuclei count vs DMSO), 5 days (fraction); higher = more cells survive
AGI-6780 + Crizotinib = compound: O=C(Nc1cccc(C(F)(F)F)c1)Nc1cc(S(=O)(=O)NC2CC2)ccc1-c1ccsc1 [AGI-6780] + C[C@@H](Oc1cc(-c2cnn(C3CCNCC3)c2)cnc1N)c1c(Cl)ccc(F)c1Cl [Crizotinib] (partner 1 µM)
How it was run: (§1)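 The day after seeding in 1536-well plates, lung cancer cell lines were treated by pin tool with a single drug, or with a fixed anchor-drug dose together with five library-drug doses (not always all listed) in √10 steps. After 5 days, a combined fix-and-stain solution (final 0.05% Triton X-100, 1% formaldehyde, 1 ug/ml Hoechst) was added. Nuclei counted on 4× images gave relative viability as treated counts over vehicle counts, reported as the median of duplicate plates.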

AGI-6780 + Decitabine = compound: O=C(Nc1cccc(C(F)(F)F)c1)Nc1cc(S(=O)(=O)NC2CC2)ccc1-c1ccsc1 [AGI-6780] + Nc1ncn([C@H]2C[C@H](O)[C@@H](CO)O2)c(=O)n1 [Decitabine] (partner 2 µM)
How it was run: as §1

AGI-6780 + Lapatinib = compound: O=C(Nc1cccc(C(F)(F)F)c1)Nc1cc(S(=O)(=O)NC2CC2)ccc1-c1ccsc1 [AGI-6780] + CS(=O)(=O)CCNCc1ccc(-c2ccc3ncnc(Nc4ccc(OCc5cccc(F)c5)c(Cl)c4)c3c2)o1 [Lapatinib] (partner 2 µM)
How it was run: as §1

AGI-6780 + Tozasertib = compound: O=C(Nc1cccc(C(F)(F)F)c1)Nc1cc(S(=O)(=O)NC2CC2)ccc1-c1ccsc1 [AGI-6780] + Cc1cc(Nc2cc(N3CCN(C)CC3)nc(Sc3ccc(NC(=O)C4CC4)cc3)n2)n[nH]1 [Tozasertib] (partner 0.1 µM)
How it was run: as §1

| Cell Line | relative viability (AGI-6780 + Crizotinib; first compound 0.08 µM) | relative viability (AGI-6780 + Crizotinib; first compound 0.253 µM) | relative viability (AGI-6780 + Crizotinib; first compound 0.8 µM) | relative viability (AGI-6780 + Crizotinib; first compound 2.53 µM) | relative viability (AGI-6780 + Crizotinib; first compound 8 µM) | relative viability (AGI-6780 + Decitabine; first compound 0.08 µM) | relative viability (AGI-6780 + Decitabine; first compound 0.253 µM) | relative viability (AGI-6780 + Decitabine; first compound 0.8 µM) | relative viability (AGI-6780 + Decitabine; first compound 2.53 µM) | relative viability (AGI-6780 + Decitabine; first compound 8 µM) | relative viability (AGI-6780 + Lapatinib; first compound 0.08 µM) | relative viability (AGI-6780 + Lapatinib; first compound 0.253 µM) | relative viability (AGI-6780 + Lapatinib; first compound 0.8 µM) | relative viability (AGI-6780 + Lapatinib; first compound 2.53 µM) | relative viability (AGI-6780 + Lapatinib; first compound 8 µM) | relative viability (AGI-6780 + Tozasertib; first compound 0.08 µM) | relative viability (AGI-6780 + Tozasertib; first compound 0.253 µM) | relative viability (AGI-6780 + Tozasertib; first compound 0.8 µM) | relative viability (AGI-6780 + Tozasertib; first compound 2.53 µM) | relative viability (AGI-6780 + Tozasertib; first compound 8 µM) |
| --- | --- | --- | --- | --- | --- | --- | --- | --- | --- | --- | --- | --- | --- | --- | --- | --- | --- | --- | --- | --- |
| 201T | 1.04 | 1.04 | 1.01 | 1.03 | 1.05 | 0.88 | 0.841 | 0.861 | 0.87 | 0.878 | 1.03 | 1.01 | 1.02 | 1.01 | 1.02 | 0.916 | 0.95 | 0.938 | 0.835 | 0.968 |
| A-427 | 1.02 | 0.897 | 1.06 | 0.693 | 0.901 | – | 0.538 | 0.573 | 0.508 | 0.527 | 1.09 | 0.997 | 1.01 | 0.945 | 0.929 | 0.264 | 0.217 | 0.19 | 0.154 | 0.168 |
| ABC-1 | 1.1 | 1.17 | 1.69 | 1.2 | 0.978 | – | 1.42 | 0.87 | 1.05 | 0.924 | 1.26 | 1.2 | 1.27 | 1.16 | 1.27 | 0.186 | 0.212 | 0.17 | 0.206 | 0.167 |
| BEN | 0.891 | 0.738 | 0.955 | – | 0.966 | 0.662 | 0.757 | 0.722 | – | 0.836 | 0.569 | 0.703 | 0.91 | – | 0.637 | 0.526 | 0.497 | 0.503 | 0.433 | 0.425 |
| CAL-12T | 0.686 | 0.681 | 0.61 | 0.87 | 0.716 | – | – | – | – | – | – | 0.582 | 0.876 | 0.572 | 0.619 | 0.389 | 0.32 | 0.3 | 0.276 | 0.31 |
| COR-L23 | 0.678 | 0.622 | 0.564 | 0.754 | 0.617 | 0.449 | 0.455 | 0.477 | 0.399 | 0.416 | 0.905 | 0.919 | 0.982 | 1.31 | 0.997 | 0.224 | 0.216 | 0.206 | 0.213 | 0.178 |
| COR-L 105 | 0.899 | 0.738 | 1.01 | 0.708 | 0.848 | 0.602 | 0.89 | 0.649 | 0.655 | 0.713 | 0.358 | 0.357 | 0.437 | 0.343 | 0.324 | 0.402 | 0.357 | 0.388 | 0.336 | 0.441 |
